# In patent US9695155B2, “Herbicidal substituted pyrimidinyloxy benzene compounds” (E. I. DU PONT DE NEMOURS AND COMPANY, priority 2013, dated 2017):
# What was measured:
# barnyardgrass [1] = test: Test A preemergence; type: in vivo, Echinochloa crus-galli
# Procedure, shortened: (§1)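 Visual injury scored 0–100 (100 = complete control) against untreated controls about 10 days after treatment in a greenhouse. Test chemicals, formulated with surfactant in non-phytotoxic solvent, were sprayed on soil preemergence or on 2-10 cm, one- to two-leaf plants postemergence.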
# kochia [2] = test: Test A preemergence; type: in vivo, Kochia scoparia; settings: 1000 g ai/ha, 0 to 100 scale, 0 no effect, 100 complete control, approx. 10 days
# From the text: (§2) Seeds of plant species selected from barnyardgrass (Echinochloa crus-galli), kochia (Kochia scoparia), ragweed (common ragweed, Ambrosia elatior), Italian ryegrass (Lolium multiflorum), large (Lg) crabgrass (Digitaria sanguinalis), giant foxtail (Setaria faberii), morningglory (Ipomoea spp.), pigweed (Amaranthus retroflexus), velvetleaf (Abutilon theophrasti), wheat (Triticum aestivum), and corn (Zea mays) were planted into a blend of loam soil and sand and treated preemergence with a directed soil spray using test chemicals formulated in a non-phytotoxic solvent mixture which included a surfactant.
# (§3) At the same time, plants selected from these crop and weed species and also blackgrass (Alopecurus myosuroides), and galium (catchweed bedstraw, Galium aparine) were planted in pots containing the same blend of loam soil and sand and treated with postemergence applications of test chemicals formulated in the same manner. Plants ranged in height from 2 to 10 cm and were in the one- to two-leaf stage for the postemergence treatment. Treated plants and untreated controls were maintained in a greenhouse for approximately 10 days, after which time all treated plants were compared to untreated controls and visually evaluated for injury. Plant response ratings, summarized in Table A, are based on a 0 to 100 scale where 0 is no effect and 100 is complete control. A dash (-) response means no test result.
# ragweed [3] = test: Test A preemergence; type: in vivo, Ambrosia elatior; settings: 1000 g ai/ha, 0 to 100 scale, 0 no effect, 100 complete control, approx. 10 days
# From the text: as §2, §3
# Italian ryegrass [4] = test: Test A preemergence; type: in vivo, Lolium multiflorum; settings: 1000 g ai/ha, 0 to 100 scale, 0 no effect, 100 complete control, approx. 10 days
# From the text: as §2, §3
# giant foxtail [5] = test: Test A preemergence; type: in vivo, Setaria faberii
# Procedure, shortened: as §1
# pigweed [6] = test: Test A preemergence; type: in vivo, Amaranthus retroflexus
# Procedure, shortened: as §1
# barnyardgrass [7] = test: Test A postemergence; type: in vivo, Echinochloa crus-galli
# Procedure, shortened: as §1
# kochia [8] = test: Test A postemergence; type: in vivo, Kochia scoparia; settings: 1000 g ai/ha, 0 to 100 scale, 0 no effect, 100 complete control
# From the text: as §2, §3
# ragweed [9] = test: Test A postemergence; type: in vivo, Ambrosia elatior; settings: 1000 g ai/ha, 0 to 100 scale, 0 no effect, 100 complete control
# From the text: as §2, §3
# Italian ryegrass [10] = test: Test A postemergence; type: in vivo, Lolium multiflorum; settings: 1000 g ai/ha, 0 to 100 scale, 0 no effect, 100 complete control
# From the text: as §2, §3
# giant foxtail [11] = test: Test A postemergence; type: in vivo, Setaria faberii
# Procedure, shortened: as §1
# pigweed [12] = test: Test A postemergence; type: in vivo, Amaranthus retroflexus
# Procedure, shortened: as §1
# wheat [13] = test: Test A postemergence; type: in vivo, Triticum aestivum
# Procedure, shortened: as §1
# corn [14] = test: Test A postemergence; type: in vivo, Zea mays
# Procedure, shortened: as §1
# blackgrass = test: Test A postemergence; type: in vivo, Alopecurus myosuroides; settings: 1000 g ai/ha, 0 to 100 scale, 0 no effect, 100 complete control
# From the text: as §2, §3
# galium = test: Test A postemergence; type: in vivo, Galium aparine; settings: 1000 g ai/ha, 0 to 100 scale, 0 no effect, 100 complete control
# From the text: as §2, §3
# large (Lg) crabgrass [15] = test: Test A preemergence; type: in vivo, Digitaria sanguinalis
# Procedure, shortened: as §1
# morningglory [16] = test: Test A preemergence; type: in vivo, Ipomoea spp.
# Procedure, shortened: as §1
# velvetleaf [17] = test: Test A preemergence; type: in vivo, Abutilon theophrasti
# Procedure, shortened: as §1
# wheat [18] = test: Test A preemergence; type: in vivo, Triticum aestivum
# Procedure, shortened: as §1
# corn [19] = test: Test A preemergence; type: in vivo, Zea mays
# Procedure, shortened: as §1
# large (Lg) crabgrass [20] = test: Test A postemergence; type: in vivo, Digitaria sanguinalis; settings: 0 to 100 scale where 0 is no effect and 100 is complete control
# Procedure, shortened: as §1
# morningglory [21] = test: Test A postemergence; type: in vivo, Ipomoea spp.; settings: 0 to 100 scale where 0 is no effect and 100 is complete control
# Procedure, shortened: as §1
# velvetleaf [22] = test: Test A postemergence; type: in vivo, Abutilon theophrasti; settings: 0 to 100 scale where 0 is no effect and 100 is complete control
# Procedure, shortened: as §1
# rice = test: Test B flooded paddy test; type: in vivo, Oryza sativa; settings: Flood, 250 g ai/ha; 0 to 100 scale where 0 is no effect and 100 is complete control
# Procedure, shortened: (§4)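 Visual ratings on a 0 to 100 scale, where 100 means complete control, compared treated plants with controls after 13 to 15 days in a greenhouse. Treatment went into paddy water 3 cm deep over the soil, applied to plants at the 2-leaf stage.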
# sedge, umbrella = test: Test B flooded paddy test; type: in vivo, Cyperus difformis; settings: Flood, 250 g ai/ha; 0 to 100 scale where 0 is no effect and 100 is complete control
# Procedure, shortened: as §4
# Heteranthera limosa = test: Test B flooded paddy test; type: in vivo; settings: Flood, 250 g ai/ha; 0 to 100 scale where 0 is no effect and 100 is complete control
# Procedure, shortened: as §4
# barnyardgrass [23] = test: Test B flooded paddy test; type: in vivo, Echinochloa crus-galli; settings: Flood, 250 g ai/ha; 0 to 100 scale where 0 is no effect and 100 is complete control
# Procedure, shortened: as §4
# [24] = 1000 g ai/ha, 0 to 100 scale, 0 no effect, 100 complete control, approx. 10 days
# [25] = 1000 g ai/ha, 0 to 100 scale, 0 no effect, 100 complete control
# [26] = 500 g ai/ha, 0 to 100 scale where 0 is no effect and 100 is complete control
# [27] = 125 g ai/ha, 0 to 100 scale where 0 is no effect and 100 is complete control
structure (smiles),measurement,setting,value
CCN(C)C(=O)c1cccc(Oc2ncc(Cl)cn2)c1-n1cc(C(F)(F)F)cn1 [Compound 262],Barnyardgrass plant response rating,barnyardgrass [1]; [24],0
same,Kochia plant response rating,kochia [2],20
same,Ragweed plant response rating,ragweed [3],0
same,"Ryegrass, Italian plant response rating",Italian ryegrass [4],0
same,"Foxtail, Giant plant response rating",giant foxtail [5]; [24],50
same,Pigweed plant response rating,pigweed [6]; [24],10
same,"Plant response rating, Barnyardgrass",barnyardgrass [7]; [25],10
same,"Plant response rating, Kochia",kochia [8],30
same,"Plant response rating, Ragweed",ragweed [9],10
same,"Plant response rating, Ryegrass, Italian",Italian ryegrass [10],0
same,"Plant response rating, Foxtail, Giant",giant foxtail [11]; [25],10
same,"Plant response rating, Pigweed",pigweed [12]; [25],50
same,"Plant response rating, Wheat",wheat [13]; [25],0
same,"Plant response rating, Corn",corn [14]; [25],0
same,"Plant response rating, Blackgrass",blackgrass,10
same,"Plant response rating, Galium",galium,10
CC(C)(C)NS(=O)(=O)c1cnn(-c2ccccc2Oc2ncc(Cl)cn2)c1 [Compound 283],Barnyardgrass plant response rating,barnyardgrass [1]; [24],0
same,Kochia plant response rating,kochia [2],0
same,Ragweed plant response rating,ragweed [3],0
same,"Ryegrass, Italian plant response rating",Italian ryegrass [4],0
same,"Foxtail, Giant plant response rating",giant foxtail [5]; [24],0
same,Pigweed plant response rating,pigweed [6]; [24],0
same,"Plant response rating, Barnyardgrass",barnyardgrass [7]; [25],0
same,"Plant response rating, Kochia",kochia [8],10
same,"Plant response rating, Ragweed",ragweed [9],20
same,"Plant response rating, Ryegrass, Italian",Italian ryegrass [10],0
same,"Plant response rating, Foxtail, Giant",giant foxtail [11]; [25],0
same,"Plant response rating, Pigweed",pigweed [12]; [25],20
same,"Plant response rating, Wheat",wheat [13]; [25],0
same,"Plant response rating, Corn",corn [14]; [25],0
same,"Plant response rating, Blackgrass",blackgrass,10
same,"Plant response rating, Galium",galium,30
CNC(=O)c1cccc(Oc2ncc(Cl)cn2)c1-n1cc(C(F)(F)F)cn1 [Compound 256],Barnyardgrass plant response rating,barnyardgrass [1]; [24],20
same,Kochia plant response rating,kochia [2],70
same,Ragweed plant response rating,ragweed [3],30
same,"Ryegrass, Italian plant response rating",Italian ryegrass [4],20
same,"Foxtail, Giant plant response rating",giant foxtail [5]; [24],30
same,Pigweed plant response rating,pigweed [6]; [24],30
same,"Plant response rating, Barnyardgrass",barnyardgrass [7]; [25],10
same,"Plant response rating, Kochia",kochia [8],30
same,"Plant response rating, Ragweed",ragweed [9],10
same,"Plant response rating, Ryegrass, Italian",Italian ryegrass [10],0
same,"Plant response rating, Foxtail, Giant",giant foxtail [11]; [25],10
same,"Plant response rating, Pigweed",pigweed [12]; [25],10
same,"Plant response rating, Wheat",wheat [13]; [25],0
same,"Plant response rating, Corn",corn [14]; [25],0
same,"Plant response rating, Blackgrass",blackgrass,10
same,"Plant response rating, Galium",galium,30
CC#Cc1cnn(-c2ccccc2Oc2ncc(Cl)cn2)c1 [Compound 189],"Barnyardgrass plant response rating (0 to 100 scale, 0 is no effect, 100 is complete control)",barnyardgrass [1]; 125 g ai/ha,20
same,Barnyardgrass plant response rating,barnyardgrass [1]; [26],90
same,"Crabgrass, Large plant response rating (0 to 100 scale)",large (Lg) crabgrass [15]; 125 g ai/ha,90
same,"Crabgrass, Large plant response rating",large (Lg) crabgrass [15]; [26],100
same,"Foxtail, Giant plant response rating (0 to 100 scale)",giant foxtail [5]; 125 g ai/ha,70
same,"Foxtail, Giant plant response rating",giant foxtail [5]; [26],100
same,Morningglory plant response rating (0 to 100 scale),morningglory [16]; 125 g ai/ha,0
same,Morningglory plant response rating,morningglory [16]; [26],30
same,Pigweed plant response rating (0 to 100 scale),pigweed [6]; 125 g ai/ha,100
same,Pigweed plant response rating,pigweed [6]; [26],100
same,Velvetleaf plant response rating (0 to 100 scale),velvetleaf [17]; 125 g ai/ha,60
same,Velvetleaf plant response rating,velvetleaf [17]; [26],80
same,Wheat plant response rating (0 to 100 scale),wheat [18]; 125 g ai/ha,0
same,Wheat plant response rating,wheat [18]; [26],10
same,Corn plant response rating (0 to 100 scale),corn [19]; 125 g ai/ha,0
same,Corn plant response rating,corn [19]; [26],0
same,Barnyardgrass plant response rating,barnyardgrass [7]; [27],10
same,"Plant response rating, Barnyardgrass",barnyardgrass [7]; [26],90
same,"Crabgrass, Large plant response rating",large (Lg) crabgrass [20]; 125 g ai/ha,30
same,"Plant response rating, Crabgrass, Large",large (Lg) crabgrass [20]; 500 g ai/ha,80
same,"Foxtail, Giant plant response rating",giant foxtail [11]; [27],40
same,"Plant response rating, Foxtail, Giant",giant foxtail [11]; [26],80
same,Morningglory plant response rating,morningglory [21]; 125 g ai/ha,50
same,"Plant response rating, Morningglory",morningglory [21]; 500 g ai/ha,100
same,Pigweed plant response rating,pigweed [12]; [27],100
same,"Plant response rating, Pigweed",pigweed [12]; [26],100
same,Velvetleaf plant response rating,velvetleaf [22]; 125 g ai/ha,90
same,"Plant response rating, Velvetleaf",velvetleaf [22]; 500 g ai/ha,100
same,Wheat plant response rating,wheat [13]; [27],20
same,"Plant response rating, Wheat",wheat [13]; [26],50
same,Corn plant response rating,corn [14]; [27],10
same,"Plant response rating, Corn",corn [14]; [26],40
same,"Plant response rating, Rice",rice,0
same,"Plant response rating, Sedge, Umbrella","sedge, umbrella",70
same,"Plant response rating, Ducksalad",Heteranthera limosa,70
same,"Plant response rating, Barnyardgrass",barnyardgrass [23],0
